pIC50: −log10 of the molar value.
Molecular target: T1, human CXCR3 (N-delta 4) (Homo sapiens, UniProt P49682)
T1 construct: CD8 leader (N); Flag; expressed in transfected cells; membranes prepared
T1 sequence (P49682 5-368 limits assumed): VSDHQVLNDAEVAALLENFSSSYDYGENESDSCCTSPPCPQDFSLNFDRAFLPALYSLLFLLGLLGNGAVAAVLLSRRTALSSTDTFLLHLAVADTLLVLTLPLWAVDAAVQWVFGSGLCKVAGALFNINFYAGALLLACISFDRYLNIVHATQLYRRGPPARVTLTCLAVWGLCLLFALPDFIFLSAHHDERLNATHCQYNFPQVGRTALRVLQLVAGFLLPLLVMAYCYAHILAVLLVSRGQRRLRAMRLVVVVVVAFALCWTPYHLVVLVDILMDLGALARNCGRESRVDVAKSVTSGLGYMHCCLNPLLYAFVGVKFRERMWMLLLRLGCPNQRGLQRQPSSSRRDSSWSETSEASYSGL
Assay: Human CXCR3 (N-delta 4) Scintillation Proximity Assay (SPA), [125I] IP-10 binding to Ba/F3-hCXCR3 membranes
Settings: IC50 rating, Table 1; read-out: IC50

Structure (SMILES) | pIC50
CC[C@H]1CN(c2ncc(C(N)=O)nc2Cl)CCN1C1CCN(Cc2ccc(Cl)cc2[C@H](O)C(N)=O)CC1 [compound 396] | > 7.60
CC[C@H]1CN(c2nc(N)c(C(=O)NCCO)nc2Cl)CCN1C1CCN(Cc2ccc(OC)c(F)c2)CC1 [compound 397] | > 7.60
CC[C@H]1CN(c2nc(N)c(C(=O)NC(=N)NC)nc2Cl)CCN1C1CCN(C(=O)c2ccc(OC(F)(F)F)cc2)CC1 [compound 402] | > 7.60
CC[C@H]1CN(c2nc(N)c(C(N)=O)nc2Cl)CCN1C1CCN(Cc2ccc(Cl)cc2C2NC(=O)NC2=O)CC1 (some centres unmarked) [compound 405] | < 7.00
CC[C@H]1CN(c2nc(N)c(C(N)=O)nc2Cl)CCN1C1CCN(Cc2ccc(Cl)cc2C2OC(=O)NC2=O)CC1 (some centres unmarked) [compound 407] | < 7.00
CC[C@H]1CN(c2ncc(C(N)=O)nc2C)CCN1C1CCN(C(=O)c2ccc(F)c(F)c2)CC1 [compound 408] | 7.00 to 7.60
CC[C@H]1CN(c2ncc(C(N)=O)nc2Cl)CCN1C1CCN(C(=O)c2ccc(Cl)c(OCCS(C)(=O)=O)c2)CC1 [compound 409] | > 7.60
CC[C@H]1CN(c2nc(N)c(C(N)=O)nc2Cl)CCN1C1CCN(Cc2ccc(Cl)c(OCCS(C)(=O)=O)c2)CC1 [compound 411] | > 7.60
CC[C@H]1CN(c2ncc(C(N)=O)nc2C)CCN1C1CCN(Cc2ccc(Cl)cc2)CC1 [compound 412] | > 7.60
CC[C@H]1CN(c2nc(N)c(C(=O)NCCO)nc2Cl)CCN1C1CCN(Cc2ccc(F)c(OCCSC)c2)CC1 [compound 413] | > 7.60
CC[C@H]1CN(c2nc(N)c(C(=O)NCCO)nc2Cl)CCN1C1CCN(Cc2ccc(OCCSC)c(F)c2)CC1 [compound 415] | > 7.60
CC[C@H]1CN(c2ncc(C(N)=O)nc2C(F)(F)F)CCN1C1CCN(C(=O)c2ccc(Cl)cc2)CC1 [compound 416] | > 7.60
CC[C@H]1CN(c2nc(N)c(C(=O)NCCO)nc2Cl)CCN1C1CCN(Cc2ccc(Cl)cc2S(C)(=O)=O)CC1 [compound 422] | > 7.60
CC[C@H]1CN(c2ncc(C(=O)NC3=NCCN3)nc2Cl)CCN1C1CCN(C(=O)c2ccc(Cl)cc2)CC1 [compound 424] | < 7.00
CC[C@H]1CN(c2cnc(C(N)=O)cn2)CCN1C1CCN(Cc2ccc(Cl)cc2)CC1 [compound 425] | < 7.00
CC[C@H]1CN(c2nc(N)c(C(=O)NCCO)nc2Cl)CCN1C1CCN(Cc2ccc(OS(C)(=O)=O)c(F)c2)CC1 [compound 426] | < 7.00
CC[C@H]1CN(c2nc(N)c(C(=O)NCCO)nc2Cl)CCN1C1CCN(Cc2ccc(O)c(F)c2)CC1 [compound 427] | < 7.00
CC[C@H]1CN(c2nc(N)c(C(N)=O)nc2Cl)CCN1C1CCN(Cc2ccc(O)c(F)c2)CC1 [compound 428] | < 7.00

Structure (SMILES) | pIC50
CC[C@H]1CN(c2nc(N)c(C(N)=O)nc2Cl)CCN1C1CCN(Cc2ccc(Cl)cc2S(=O)(=O)NC)CC1 [compound 429] | < 7.00
CC[C@H]1CN(c2ncc(C(N)=O)nc2C)[C@H](C)CN1C1CCN(Cc2ccc(F)cc2)CC1 [compound 432] | > 7.60
CC[C@H]1CN(c2ncc(C(N)=O)nc2C)[C@H](C)CN1C1CCN(Cc2ccc(C#N)cc2)CC1 [compound 434] | > 7.60
CC[C@H]1CN(c2ncc(C(=O)NC)nc2C)CCN1C1CCN(C(=O)c2ccc(F)cc2)CC1 [compound 435] | > 7.60
CC[C@H]1CN(c2ncc(C(N)=O)nc2C)CCN1C1CCN(C(=O)c2ccc(Cl)cc2N)CC1 [compound 442] | > 7.60
CC[C@H]1CN(c2ncc(C(N)=O)nc2C)CCN1C1CCN([C@@H](CO)c2ccc(Cl)cc2)CC1 [compound 443] | > 7.60
CC[C@H]1CN(c2ncc(C(N)=O)nc2C)CCN1C1CCN([C@H](CO)c2ccc(Cl)cc2)CC1 [compound 444] | > 7.60
CC[C@H]1CN(c2ncc(C(N)=O)nc2C)CCN1C1CCN(Cc2ccc(C(F)(F)F)cc2)CC1 [compound 445] | > 7.60
CC[C@H]1CN(c2ncc(C(=O)NC3CC3)nc2C)CCN1C1CCN(Cc2ccc(C)c(F)c2)CC1 [compound 448] | > 7.60
CCNC(=O)c1cnc(N2CCN(C3CCN(C(=O)c4ccc(Cl)cc4)CC3)[C@@H](CC)C2)c(C)n1 [compound 451] | > 7.60
CC[C@H]1CN(c2ncc(C(=O)NC)nc2C)CCN1C1CCN(C(=O)c2ccc(F)c(Cl)c2)CC1 [compound 456] | > 7.60
CC[C@H]1CN(c2ncc(C(N)=O)nc2Cl)CCN1C1CCN([C@@H](CO)c2ccc(Cl)cc2)CC1 [compound 457] | > 7.60
CC[C@H]1CN(c2ncc(C(=O)NC3CC3)nc2C)CCN1C1CCN(C(=O)c2ccc(Cl)cc2)CC1 [compound 460] | > 7.60
CC[C@H]1CN(c2ncc(C(=O)NC3CC3)nc2C)CCN1C1CCN(C(=O)c2ccc(F)c(F)c2)CC1 [compound 461] | > 7.60
CC[C@H]1CN(c2ncc(C(=O)NC3CC3)nc2C)CCN1C1CCN(C(=O)c2ccc(F)cc2F)CC1 [compound 462] | > 7.60
CC[C@H]1CN(c2ncc(C(N)=O)nc2C)CCN1C1CCN([C@@H](C(=O)OC)c2ccc(Cl)cc2)CC1 [compound 463] | > 7.60
CC[C@H]1CN(c2ncc(C(N)=O)nc2C)CCN1C1CCN(C(C(=O)OC)c2ccc(Cl)cc2)CC1 (some centres unmarked) [compound 464] | > 7.60

Other lines, results leading:

pIC50 | Structure (SMILES)
> 7.60 | CC[C@H]1CN(c2nc(N)c(C(=O)NCCO)nc2Cl)CCN1C1CCN(Cc2ccc(F)c(OC)c2)CC1 [compound 394]
> 7.60 | CC[C@H]1CN(c2nc(N)c(C(=O)NC(=N)NC)nc2Cl)CCN1C1CCN(C(=O)c2ccc(F)c(F)c2)CC1 [compound 398]
> 7.60 | CC[C@H]1CN(c2nc(N)c(C(=O)NC(=N)NC)nc2Cl)CCN1C1CCN(C(=O)c2ccc(C#N)cc2)CC1 [compound 399]
> 7.60 | CC[C@H]1CN(c2nc(N)c(C(N)=O)nc2Cl)CCN1C1CCN(Cc2ccc(Cl)cc2S(N)(=O)=O)CC1 [compound 401]
< 7.00 | CC[C@H]1CN(c2nc(N)c(C(N)=O)nc2Cl)CCN1C1CCN(Cc2ccc(Cl)cc2C2OC(=O)N(C)C2=O)CC1 (some centres unmarked) [compound 406]
> 7.60 | CC[C@H]1CN(c2nc(N)c(C(=O)NCCO)nc2Cl)CCN1C1CCN(Cc2ccc(Cl)c(OCCS(C)(=O)=O)c2)CC1 [compound 410]
> 7.60 | CC[C@H]1CN(c2ncc(C(N)=O)nc2C)[C@H](C)CN1C1CCN(C(=O)c2ccc(Cl)cc2)CC1 [compound 417]
> 7.60 | CC[C@H]1CN(c2nc(N)c(C(=O)NCCO)nc2Cl)CCN1C1CCN(C(=O)c2ccc(F)c(O)c2)CC1 [compound 419]
> 7.60 | CC[C@H]1CN(c2nc(N)c(C(=O)NC3CC3)nc2Cl)CCN1C1CCN(Cc2ccc(Cl)cc2S(C)(=O)=O)CC1 [compound 420]
> 7.60 | CC[C@H]1CN(c2nc(N)c(C(=O)NCCO)nc2Cl)CCN1C1CCN(Cc2ccc(F)c(OS(C)(=O)=O)c2)CC1 [compound 421]
7.00 to 7.60 | CCc1nc(C(N)=O)cnc1N1CCN(C2CCN(C(=O)c3ccc(Cl)cc3)CC2)[C@@H](CC)C1 [compound 423]
< 7.00 | CC[C@H]1CN(c2nc(N)c(C(=O)NCCO)nc2Cl)CCN1C1CCN(C(=O)c2ccc(CS(C)(=O)=O)cc2)CC1 [compound 430]
> 7.60 | CC[C@H]1CN(c2ncc(C(N)=O)nc2C)CCN1C1CCN(Cc2ccc(F)cc2)CC1 [compound 431]
> 7.60 | CC[C@H]1CN(c2ncc(C(N)=O)nc2C)CCN1C1CCN(Cc2ccc(C)c(F)c2)CC1 [compound 433]
> 7.60 | CC[C@H]1CN(c2ncc(C(=O)NC)nc2C)CCN1C1CCN(C(=O)c2ccc(Cl)cc2)CC1 [compound 437]
> 7.60 | CC[C@H]1CN(c2cnc(C(N)=O)cn2)CCN1C1CCN([C@@H](CO)c2ccc(Cl)cc2)CC1 [compound 438]
> 7.60 | CC[C@H]1CN(c2ncc(C(=O)NC3CC3)nc2C)CCN1C1CCN(Cc2ccc(C)cc2)CC1 [compound 439]
> 7.60 | CC[C@H]1CN(c2ncc(C(=O)NC3CC3)nc2C)CCN1C1CCN(Cc2ccc(F)cc2)CC1 [compound 440]
> 7.60 | CC[C@H]1CN(c2ncc(C(=O)NC3CC3)nc2C)CCN1C1CCN(C(=O)c2ccc(C)cc2)CC1 [compound 446]
> 7.60 | CC[C@H]1CN(c2ncc(C(=O)NC3CC3)nc2C)CCN1C1CCN(C(=O)c2ccc(F)cc2)CC1 [compound 447]
> 7.60 | CC[C@H]1CN(c2ncc(C(=O)NC3CC3)nc2C)CCN1C1CCN(Cc2ccc(Cl)cc2)CC1 [compound 449]
> 7.60 | CC[C@H]1CN(c2ncc(C(=O)NC3CC3)nc2C)CCN1C1CCN(Cc2ccc(F)c(F)c2)CC1 [compound 450]
> 7.60 | CC[C@H]1CN(c2ncc(C(=O)NC)nc2C)[C@H](C)CN1C1CCN(C(=O)c2ccc(Cl)cc2)CC1 [compound 452]
> 7.60 | CC[C@H]1CN(c2ncc(C(N)=O)nc2C)[C@H](C)CN1C1CCN([C@@H](CO)c2ccc(Cl)cc2)CC1 [compound 453]
> 7.60 | CC[C@H]1CN(c2ncc(C(=O)NC)nc2C)CCN1C1CCN(C(=O)c2ccc(Cl)c(F)c2)CC1 [compound 454]
> 7.60 | CC[C@H]1CN(c2ncc(C(=O)NC)nc2C)CCN1C1CCN(C(=O)c2ccc(Cl)cc2F)CC1 [compound 455]
> 7.60 | CC[C@H]1CN(c2ncc(C(N)=O)nc2Cl)CCN1C1CCN([C@H](CO)c2ccc(Cl)cc2)CC1 [compound 458]
> 7.60 | CC[C@H]1CN(c2ncc(C(=O)NC3CC3)nc2C)CCN1C1CCN(C(=O)c2ccc(C)c(F)c2)CC1 [compound 459]
> 7.60 | CC[C@H]1CN(c2ncc(C(=O)OC)nc2C)[C@H](C)CN1C1CCN([C@@H](CO)c2ccc(Cl)cc2)CC1 [compound 465]
> 7.60 | CC[C@H]1CN(c2ncc(C(N)=O)nc2C)[C@H](C)CN1C1CCN(Cc2ccc(OC(F)(F)F)cc2)CC1 [compound 466]
